Results reported in patent US12653902B2, “Photo-immunoconjugate formulations and methods of treatment relating thereto” (University of Maryland, College Park, priority 2019, dated 2026).

Legend:
OVCAR-5 cells = experiment: Intracellular BPD uptake (BPD fluorescence, extraction and imaging); assay type: cell-based, human; details: 24 hours post-incubation, compared to PIC and PIC-Nal
Experimental: For uptake and phototoxicity studies, OVCAR-5 cells (200 k cells/35-mm dish) were incubated with PIC-Nal or controls (i.e., PIC alone, no-treatment) at a fixed BPD concentration (0.25 μM) for 24 hours. For uptake study, cells were washed twice with PBS and dissolved in SOLVABLE™. The BPD fluorescence signals (Ex/Em: 435/690 nm) were acquired using a microplate reader to quantify the uptake of PIC-Nal. In another set of experiments, washed cells were fixed with 4% paraformaldehyde, and stained with DAPI. Cells were imaged with the LionHeart Imager (BioTek) using the 10× objective to visualize the BPD signal (Ex/Em: 422/690 nm) and the DAPI signal (Ex/Em: 358/461 nm). BPD fluorescence intensity was quantified using ImageJ (Schneider C A et al., NIH Image to ImageJ: 25 years of image analysis. Nat Methods 2012, 9:671-675). For phototoxicity studies, cells were irradiated with a 690 nm laser (20 J/cm^2, 150 mW/cm^2) at 24 hours post-incubation of PIC-Nal or controls. Cell viability was determined by MTT (3-(4,5-dimethylthiazol-2-yl)-2,5-diphenyltetrazolium bromide) assay (Thermo) at 24 hours post-light activation.

[1] = Absorbance at 690 nm in PBS compared to DMSO; assay type: physicochemical; details: fixed BPD concentration
[2] = Photoactivity (maximal fluorescence intensity in PBS divided by that in DMSO); assay type: physicochemical; details: maximal FI in PBS divided by maximal FI in DMSO
Experimental: Photo-immunoconjugate-nanoliposomes (PIC-Nal) and photo-immunoconjugate-nanoliposomal irinotecan (PIC-Nal-IRI) were synthesized via cooper-free click chemistry (FIG. 1). Briefly, azide-containing PICs were mixed overnight with DBCO-containing Nal (or DBCO-containing Nal-IRI) at 60:1 ratio. Sepharose CL-4B size exclusion chromatography was used to purify PIC-Nal and PIC-Nal-IRI. Irinotecan and BPD concentrations were determined by UV-Vis spectroscopy and established molar extinction coefficients: 20985 M^−1cm^−1 at 380 nm for irinotecan, 80500 M^−1cm^−1 at 435 nm and 34,895 M^−1 cm^−1 at 687 nm for BPD (Table 1). Conjugation efficacy was determined by the molar ratio of PIC onto the liposomes to the total PIC added initially. Singlet oxygen sensor green (SOSG, 5 μM) was used to detect singlet oxygen (^1O2) yield upon light irradiation of PIC-Nal-IRI or controls. BPD concentration is fixed at 5 μM. A microplate reader (BioTek) was used to acquire SOSG fluorescence signals (Ex/Em: 504/525 nm) before and after light irradiation (690 nm, 150 mW/cm^2, 20 J/cm^2). Photoactivity is defined as the maximal fluorescence intensity (FI) of photosensitizer in PBS divided by the maximal FI of photosensitizer in DMSO.

[3] = cited from earlier work

benzoporphyrin derivative [BPD]
intracellular uptake by fluorescence imaging (OVCAR-5 cells): highest uptake | loss of absorbance value at 690 nm in PBS compared to fully dissolved in DMSO [1]: ~64% | photoactivity [2]: poor photoactivity | water solubility [3]: < 50 µg/mL
